Experimental data taken from US10266806B2, “Stem cell-derived hepatocytes in co-culture and uses thereof” (Colorado State University Research Foundation, priority 2014, dated 2019).
Where a name gives a salt, the structure may show the parent alone. Read-outs that look alike come from different tables or passages of the source. Values belong to the compound of their own block, whether it stands above or below them.

Legend:
[1] = system: iHeps in iMPCCs; settings: for TC50 in MPCCs ATP / TC50 in MPCCs Albumin / TC50 in MPCCs Urea: human, 6 days
[2] = system: primary human hepatocytes in MPCCs; settings: (ref 19), cited from earlier work; for TC50 in MPCCs ATP: concentration at which activity decreases by 50% of DMSO-only controls
[3] = total human plasma concentration; cited from earlier work
[4] = system: iMPCCs
[5] = system: iHeps in iCCs
[6] = negative number: withdrawn from the market; higher positive numbers: greater DILI concern; cited from earlier work
[7] = system: primary hepatocytes (HUM4011)
[8] = system: iHeps in iMPCCs; test: Drug toxicity screening in iMPCCs (albumin, ATP, urea; binary decision and TC50)

SMILES: Cc1cccc(Nc2ccccc2C(=O)O)c1C [Mefenamic acid]
TC50 in MPCCs ATP [1]: 2551.9 µM | TC50 in MPCCs Albumin [1]: 410.3 µM | TC50 in MPCCs Urea [1]: 572.3 µM | TC50 in MPCCs Albumin [2]: 1291.9 µM | TC50 in MPCCs Urea [2]: 1255.1 µM | TC50 in MPCCs ATP [2]: 1393.4 µM | Cmax [3]: 27 µM

SMILES: C[C@]12CC[C@@H]3c4ccc(O)cc4CC[C@H]3[C@@H]1CCC2=O [Estrone]
Cmax [3]: 0.022 µM

SMILES: CN(C)CCCN1c2ccccc2CCc2ccccc21 [Imipramine HCl]
DILI Sev (DILI severity scores from the LTKB of the FDA) [6]: 3

SMILES: O=C(O)c1cn(C2CC2)c2cc(N3CCNCC3)c(F)cc2c1=O [Ciprofloxacin HCl]
TC50 in MPCCs ATP [1]: 804.2 µM | TC50 in MPCCs Albumin [1]: 525.3 µM | TC50 in MPCCs Urea [1]: 326.3 µM

SMILES: CN(C)CCCN1c2ccccc2CCc2ccc(Cl)cc21 [Clomipramine]
TC50 in MPCCs Albumin [1]: 9.4 µM | TC50 in MPCCs Urea [1]: 13.8 µM | TC50 in MPCCs Albumin [2]: 9.4 µM | TC50 in MPCCs Urea [2]: 9.9 µM | TC50 in MPCCs ATP [2]: 12.0 µM

SMILES: O=C1CC2(CCCC2)CC(=O)N1CCCCN1CCN(c2ncccn2)CC1 [Buspirone]
DILI Sev (DILI severity scores from the LTKB of the FDA) [6]: 3 | Cmax [3]: 0.005 µM

SMILES: C[C@H](CS)C(=O)N1CCC[C@H]1C(=O)O [Captopril]
Cmax [3]: 4.28 µM

SMILES: CC(=O)[C@H]1CC[C@H]2[C@@H]3CCC4=CC(=O)CC[C@]4(C)[C@H]3CC[C@]12C [Progesterone]
Cmax [3]: 0.193 µM

SMILES: CN1C(C(=O)Nc2ccccn2)=C(O)c2ccccc2S1(=O)=O [Piroxicam]
toxicity call in iMPCCs / iHeps [1]: toxic | DILI Sev (DILI severity scores from the LTKB of the FDA) [6]: 3 | Cmax [3]: 5.13 µM

SMILES: O=P1(N(CCCl)CCCl)NCCCO1 (stereo not drawn) [Cyclophosphamide]
TC50 in MPCCs Albumin [2]: 1449.4 µM | TC50 in MPCCs Urea [2]: 1746.0 µM | TC50 in MPCCs ATP [2]: 6165.0 µM | Cmax [3]: 265 µM | TC50 in MPCCs Albumin [8]: 18670.7 µM

SMILES: CCCCC1C(=O)N(c2ccccc2)N(c2ccccc2)C1=O [Phenylbutazone]
TC50 in MPCCs Albumin [2]: 6414.4 µM | TC50 in MPCCs Urea [2]: 2532.0 µM | TC50 in MPCCs ATP [2]: 7566.7 µM | Cmax [3]: 487 µM

Second part, led by results:

Model predictions iMPCC (binary decision) [1]: −
SMILES: CC(C)NCC(O)COc1cccc2ccccc12 (stereo not drawn) [Propranolol]
Cmax [3]: 0.201 µM

albumin production in iMPCCs [4]: declined significantly | urea production in iMPCCs [4]: declined significantly
SMILES: CC(=O)Nc1ccc(O)cc1 [Acetaminophen]

Model predictions iCC (binary decision) [5]: −
SMILES: CC/C(=C(\c1ccccc1)c1ccc(OCCN(C)C)cc1)c1ccccc1 [Tamoxifen]
TC50 in MPCCs Albumin [1]: 4.2 µM | TC50 in MPCCs Urea [1]: 11.7 µM | TC50 in MPCCs Albumin [2]: 3.2 µM | TC50 in MPCCs Urea [2]: 3.9 µM | TC50 in MPCCs ATP [2]: 15.8 µM | Cmax [3]: 0.162 µM

Model predictions iMPCC (binary decision) [1]: − | Model predictions iCC (binary decision) [5]: − | albumin production in iMPCCs [4]: minimally affected | urea production in iMPCCs [4]: minimally affected
SMILES: CC(=O)Oc1ccccc1C(=O)O [Aspirin]
Cmax [3]: 5.53 µM

Model predictions iMPCC (binary decision) [1]: −
SMILES: O=C(O)/C=C\C(=O)O [Maleic acid]
toxicity call in another donor of primary hepatocytes [7]: borderline positive | Cmax [3]: 1 µM

Model predictions iCC (binary decision) [5]: −
SMILES: CCOc1ccc(NC(C)=O)cc1 [Phenacetin]
TC50 in MPCCs Albumin [1]: 1213.3 µM | TC50 in MPCCs Urea [1]: 253.3 µM | toxicity call in iCCs [5]: not identified as toxic | TC50 in MPCCs Urea [2]: 1076.1 µM | Cmax [3]: 13.4 µM

Model predictions iMPCC (binary decision) [1]: −
SMILES: CCCCCCCCCCCCCCCC(=O)OC[C@@H](NC(=O)C(Cl)Cl)[C@H](O)c1ccc([N+](=O)[O-])cc1 [Chloramphenicol palmitate]
Cmax [3]: 20 µM

albumin production in iMPCCs [4]: declined significantly | urea production in iMPCCs [4]: declined significantly
SMILES: Cc1ccc(C(=O)c2cc(O)c(O)c([N+](=O)[O-])c2)cc1 [tolcapone]
albumin secretions in iMPCCs, toxicity over time and dose [1]: time- and dose-dependent toxicities

Model predictions iMPCC (binary decision) [1]: − | Model predictions iCC (binary decision) [5]: −
SMILES: C[C@@H]1C[C@H]2[C@@H]3CCC4=CC(=O)C=C[C@]4(C)[C@@]3(F)[C@@H](O)C[C@]2(C)[C@@]1(O)C(=O)CO [Dexamethasone]
DILI Sev (DILI severity scores from the LTKB of the FDA) [6]: 3 | Cmax [3]: 0.224 µM

Model predictions iMPCC (binary decision) [1]: −
SMILES: CC(=O)Nc1nnc(S(N)(=O)=O)s1 [Acetazolamide]
toxicity call in another donor of primary hepatocytes [7]: false negative | Cmax [3]: 135 µM

Model predictions iMPCC (binary decision) [1]: −
SMILES: CCN(CC)CCOc1ccc(C(=C(Cl)c2ccccc2)c2ccccc2)cc1 [Clomiphene citrate]
Cmax [3]: 0.022 µM
